# Laboratory results published in patent US20180113119A1, “METHODS FOR CHARACTERIZING TIME-BASED HEPATOTOXICITY” (HUREL CORPORATION, priority 2015, published 2018).
# Like-named read-outs stand apart in the source and are kept apart here.
# Tests used:
# [1] = system: human hepatocytes
# [2] = known profile of reference compound; cited from earlier work
# [3] = system: hepatocyte-stromal cell cocultures comprising primate primary hepatocytes
# Protocol: (§1) Cell viability was analyzed using a CellTiter-Blue (Promega) assay, n=4.
# (§2) These are concentration dependent toxicity curves generated after 6 days of repeat compound exposure in the 4 different species. Each compound was dosed every 2 days starting on day 0. On the 6th day the Promega Celltiter blue assay was used to measure the conversion of resazurin to the fluorescent resorufin.
# (§3) Cryopreserved human hepatocytes were obtained from Thermo Fisher (formerly Life Technologies Corporation). Cryopreserved non-human primate (cynomolgus monkey) hepatocytes were obtained from Thermo Fisher (formerly Life Technologies Corporation). Cryopreserved dog hepatocytes were obtained from IVT Bioreclamation. Cryopreserved rat hepatocytes were obtained from Thermo Fisher (formerly Life Technologies Corporation). The cryopreserved hepatocytes were removed from liquid nitrogen and thawed. After thawing, cells were re-suspended in medium and cell number and cell viability was determined using trypan blue exclusion. Stromal cells were passed in a CO2 incubator until used for experimental plating. On plating day cells were detached from the plate, washed, and re-suspended in medium. Cell number and viability were determined using trypan blue exclusion.
# (§4) The stromal cells were growth arrested prior to seeding.
# (§5) The graphs in FIGS. 11-13 present concentration dependent toxicity curves generated after 6 days of repeat compound exposure in human, dog, primate, and rat. Each compound was dosed every two days for treatment periods of two days, four days, and six days across a full range of concentrations. On the sixth day a Promega Celltiter blue assay was used to measure mitochondrial metabolic activity. That data was then used to generate a TC50 value. […] In FIG. 11 cyclophosphamide was administered every two days for treatment periods of two days, four days, and six days across a full range of concentrations.
# [4] = system: hepatocyte-stromal cell cocultures comprising human primary hepatocytes
# Protocol: as §1, §2, §3, §4, §5
# [5] = system: hepatocyte-stromal cell cocultures comprising rat primary hepatocytes
# Protocol: as §1, §2, §3, §4, §5
# [6] = system: hepatocyte-stromal cell cocultures comprising dog primary hepatocytes
# Protocol: as §1, §2, §3, §4, §5
smiles,measurement,setting,value
CN(C)CCCN1c2ccccc2Sc2ccc(Cl)cc21 [chlorpromazine],LC50 (TC50) at 24 hours,[1],21 µM
COc1ccccc1Oc1c(NS(=O)(=O)c2ccc(C(C)(C)C)cc2)nc(-c2ncccn2)nc1OCCO [bosentan],known in vivo hepatotoxicity,[2],strong in vivo hepatotoxicity
same,LC50 (TC50) at 24 hours,[1],757 µM
Cc1c(C)c2c(c(C)c1O)CCC(C)(COc1ccc(CC3SC(=O)NC3=O)cc1)O2 (stereo not shown) [Troglitazone],LC50 (TC50),"[3]; cynomolgus monkey, 6 days",207 µM
same,LC50 (TC50),"[4]; human, 6 days",308 µM
same,LC50 (TC50),"[5]; rat, 6 days",317 µM
same,LC50 (TC50),"[6]; dog, 6 days",267 µM
O=P1(N(CCCl)CCCl)NCCCO1 (stereo not shown) [Cyclophosphamide],LC50 (TC50),"[3]; Monkey, 6 days of repeat exposure, dosed every 2 days, Celltiter blue","1,904 μM"
same,effect of multiple dosing on cytotoxicity (cell viability),"[3]; primate, treatment periods of two, four and six days, CellTiter-Blue, n=4",extending the duration of dosing increases the cyclophosphamide cytotoxicity
same,LC50 (TC50),"[4]; Human, 6 days of repeat exposure, dosed every 2 days, Celltiter blue","5,523 μM"
same,effect of multiple dosing on cytotoxicity (cell viability),"[4]; human, treatment periods of two, four and six days, CellTiter-Blue, n=4",extending the duration of dosing increases the cyclophosphamide cytotoxicity
same,LC50 (TC50),"[5]; Rat, 6 days of repeat exposure, dosed every 2 days, Celltiter blue","1,506 μM"
same,effect of multiple dosing on cytotoxicity (cell viability),"[5]; rat, treatment periods of two, four and six days, CellTiter-Blue, n=4",extending the duration of dosing increases the cyclophosphamide cytotoxicity
same,LC50 (TC50),"[6]; Dog, 6 days of repeat exposure, dosed every 2 days, Celltiter blue","7,541 μM"
same,effect of multiple dosing on cytotoxicity (cell viability),"[6]; dog, treatment periods of two, four and six days, CellTiter-Blue, n=4",extending the duration of dosing increases the cyclophosphamide cytotoxicity
CC(C)NCC(O)COc1cccc2ccccc12 (stereo not shown) [propranolol],known in vivo hepatotoxicity,[2],lack of hepatotoxicity
